Laboratory results reported in ChEMBL document CHEMBL3045313, “Reduced Lantadenes A and B: semi-synthetic synthesis, selective cytotoxicity, apoptosis induction and inhibition of NO, TNF- production in HL-60 cells” (Med Chem Res, 2013).
The source made the active and inactive calls. The rule behind the calls is not given here.

Experiments:
[1] = system: HL-60; assay: Inhibition of nitrite production in Homo sapiens (human) HL60 cells at 5 to 15 uM after 12 hr by Griess assay; assay type: functional, cell-based
[2] = system: HCT-116; assay: Cytotoxicity against Homo sapiens (human) HCT116 cells assessed as growth inhibition after 48 hr by MTT assay; assay type: functional, cell-based; details: HCT-116, 48 h
[3] = system: HL-60; assay: Cytotoxicity against Homo sapiens (human) HL60 cells assessed as growth inhibition after 48 hr by MTT assay; assay type: functional, cell-based; details: HL-60, 48 h
[4] = system: Vero; assay: Cytotoxicity against Chlorocebus aethiops (African green monkey) Vero cells assessed as growth inhibition after 48 hr by MTT assay; assay type: cell-based; details: Chlorocebus sabaeus
[5] = system: MCF7; assay: Cytotoxicity against Homo sapiens (human) MCF7 cells assessed as growth inhibition after 48 hr by MTT assay; assay type: functional, cell-based; details: MCF7, 48 h
[6] = system: HSC-2; assay: Cytotoxicity against Homo sapiens (human) HSC2 cells assessed as growth inhibition after 48 hr by MTT assay; assay type: functional, cell-based; details: HSC-2, 48 h
[7] = system: HL-60; assay: Cell cycle arrest in Homo sapiens (human) HL60 cells assessed as accumulation at sub-G1 phase at 15 uM after 6 hr by propidium iodide staining-based FACS flow cytometric analysis (reference value: 0.1%); assay type: functional
[8] = system: HL-60; assay: Cell cycle arrest in Homo sapiens (human) HL60 cells assessed as accumulation at sub-G1 phase at 15 uM after 12 hr by propidium iodide staining-based FACS flow cytometric analysis (reference value: 0.1%); assay type: functional
[9] = system: HL-60; assay: Cell cycle arrest in Homo sapiens (human) HL60 cells assessed as accumulation at G0/G1 phase at 15 uM after 9 hr by propidium iodide staining-based FACS flow cytometric analysis (reference value: 36.2 +/- 2.4%); assay type: functional
[10] = system: HL-60; assay: Cell cycle arrest in Homo sapiens (human) HL60 cells assessed as accumulation at G2/M phase at 15 uM after 3 hr by propidium iodide staining-based FACS flow cytometric analysis (reference value: 9 +/- 1.2%); assay type: functional
[11] = system: HL-60; assay: Cell cycle arrest in Homo sapiens (human) HL60 cells assessed as accumulation at S phase at 15 uM after 12 hr by propidium iodide staining-based FACS flow cytometric analysis (reference value: 56.8 +/- 2.4%); assay type: functional
[12] = system: HL-60; assay: Cell cycle arrest in Homo sapiens (human) HL60 cells assessed as accumulation at G2/M phase at 15 uM after 9 hr by propidium iodide staining-based FACS flow cytometric analysis (reference value: 9 +/- 1.2%); assay type: functional
[13] = system: HL-60; assay: Cell cycle arrest in Homo sapiens (human) HL60 cells assessed as accumulation at G0/G1 phase at 15 uM after 3 hr by propidium iodide staining-based FACS flow cytometric analysis (reference value: 36.2 +/- 2.4%); assay type: functional
[14] = system: HL-60; assay: Downregulation of iNOS expression in Homo sapiens (human) HL60 cells at 15 uM after 4 hr by RT-PCR analysis relative to control; assay type: functional, cell-based
[15] = system: HL-60; assay: Cell cycle arrest in Homo sapiens (human) HL60 cells assessed as accumulation at sub-G1 phase at 15 uM after 3 hr by propidium iodide staining-based FACS flow cytometric analysis (reference value: 0.1%); assay type: functional
[16] = system: HL-60; assay: Downregulation of NF-kappaB expression in Homo sapiens (human) HL60 cells at 15 uM after 4 hr by RT-PCR analysis; assay type: functional, cell-based
[17] = system: HL-60; assay: Downregulation of bcl-2 expression in Homo sapiens (human) HL60 cells at 15 uM after 4 hr by RT-PCR analysis; assay type: functional, cell-based
[18] = system: HL-60; assay: Induction of apoptosis in Homo sapiens (human) HL60 cells assessed as caspase 3 activation at 15 uM after 24 hr by colorimetric analysis; assay type: functional, cell-based
[19] = system: HL-60; assay: Cell cycle arrest in Homo sapiens (human) HL60 cells assessed as accumulation at G2/M phase at 15 uM after 12 hr by propidium iodide staining-based FACS flow cytometric analysis (reference value: 8.2 +/- 0.4%)
[20] = system: HL-60; assay: Inhibition of nitrite production in Homo sapiens (human) HL60 cells after 12 hr by Griess assay; assay type: functional, cell-based
[21] = system: HL-60; assay: Downregulation of iNOS expression in Homo sapiens (human) HL60 cells after 12 hr by scanning densitometric analysis; assay type: functional, cell-based
[22] = system: HL-60; assay: Cell cycle arrest in Homo sapiens (human) HL60 cells assessed as accumulation at G0/G1 phase at 15 uM after 6 hr by propidium iodide staining-based FACS flow cytometric analysis (reference value: 36.2 +/- 2.4%); assay type: functional
[23] = system: HL-60; assay: Upregulation of caspase-3 expression in Homo sapiens (human) HL60 cells at 15 uM after 4 hr by RT-PCR analysis; assay type: functional, cell-based
[24] = system: HL-60; assay: Cell cycle arrest in Homo sapiens (human) HL60 cells assessed as accumulation at G2/M phase at 15 uM after 6 hr by propidium iodide staining-based FACS flow cytometric analysis (reference value: 9 +/- 1.2%); assay type: functional
[25] = system: HL-60; assay: Upregulation of bax expression in Homo sapiens (human) HL60 cells at 15 uM after 4 hr by RT-PCR analysis; assay type: functional, cell-based
[26] = system: HL-60; assay: Cell cycle arrest in Homo sapiens (human) HL60 cells assessed as accumulation at S phase at 15 uM after 3 hr by propidium iodide staining-based FACS flow cytometric analysis (reference value: 56.8 +/- 2.4%); assay type: functional
[27] = system: HL-60; assay: Inhibition of TNFalpha production in Homo sapiens (human) HL60 cells after 6 hr by ELISA; assay type: functional, cell-based
[28] = system: HL-60; assay: Cell cycle arrest in Homo sapiens (human) HL60 cells assessed as accumulation at sub-G1 phase at 15 uM after 9 hr by propidium iodide staining-based FACS flow cytometric analysis (reference value: 0.1%); assay type: functional
[29] = system: HL-60; assay: Cell cycle arrest in Homo sapiens (human) HL60 cells assessed as accumulation at S phase at 15 uM after 9 hr by propidium iodide staining-based FACS flow cytometric analysis (reference value: 56.8 +/- 2.4%); assay type: functional
[30] = system: HL-60; assay: Induction of apoptosis in Homo sapiens (human) HL60 cells assessed as appearance of apoptotic bodies at 15 uM after 24 hr by hoechst 33258 staining-based fluorescence microscopic analysis relative to control; assay type: functional, cell-based
[31] = system: HL-60; assay: Induction of apoptosis in Homo sapiens (human) HL60 cells assessed as DNA fragmentation at 15 uM after 24 hr by hoechst 33258 staining-based fluorescence microscopic analysis relative to control; assay type: functional, cell-based
[32] = system: HL-60; assay: Cell cycle arrest in Homo sapiens (human) HL60 cells assessed as accumulation at G0/G1 phase at 15 uM after 12 hr by propidium iodide staining-based FACS flow cytometric analysis (reference value: 36.2 +/- 2.4%); assay type: functional
[33] = system: HL-60; assay: Cell cycle arrest in Homo sapiens (human) HL60 cells assessed as accumulation at S phase at 15 uM after 6 hr by propidium iodide staining-based FACS flow cytometric analysis (reference value: 56.8 +/- 2.4%); assay type: functional

Row | SMILES | IC50 [2] [µM] | IC50 [3] [µM] | IC50 [4] [µM] | IC50 [5] [µM] | IC50 [6] [µM] | Activity [7] [%] | Activity [8] [%] | Activity [9] [%] | Activity [10] [%] | Activity [11] [%] | Activity [12] [%] | Activity [13] [%] | Activity [14] | Activity [15] [%] | Activity [16] | Activity [17] | Activity [18] | Activity [19] [%] | inhibition [20] | Activity [21] | also measured
1 | CNC(=N)NCCC[C@H](N)C(=O)O | – | – | – | – | – | – | – | – | – | – | – | – | – | – | – | – | – | – | – | – | inhibition [1]: Active
2 | C/C=C(/C)C(=O)O[C@@H]1CC(C)(C)C[C@H]2C3=CC[C@@H]4[C@@]5(C)CCC(=O)C(C)(C)[C@@H]5CC[C@@]4(C)[C@]3(C)CC[C@@]12C(=O)O [LANTADENE A] | 13.4 | 19.3 | > 50 | 25.8 | 50.7 | – | – | – | – | – | – | – | – | – | – | – | – | – | – | – | –
3 | CC(C)=CC(=O)O[C@@H]1CC(C)(C)C[C@@H]2C3=CC[C@@H]4[C@@]5(C)CCC(=O)C(C)(C)[C@@H]5CC[C@@]4(C)[C@]3(C)CC[C@]21C(=O)O [LANTADENE B] | 13.2 | 19.1 | > 50 | 81.4 | 43 | – | – | – | – | – | – | – | – | – | – | – | – | – | – | – | –
4 | C/C=C(/C)C(=O)O[C@@H]1CC(C)(C)C[C@H]2C3=CC[C@@H]4[C@@]5(C)CC[C@H](O)C(C)(C)[C@@H]5CC[C@@]4(C)[C@]3(C)CC[C@@]12C(=O)O [Reduced Lantadene A] | 1.2 | 1.5 | > 50 | 6 | 6.1 | 0.4 | 3.2 | 14 | 8.4 | 44.8 | 20.8 | 34.4 | Active | 0.2 | Active | Active | Active | 42 | Dose-dependent effect | Dose-dependent effect | Activity [22]: 20.8%; Activity [23]: Active; Activity [24]: 15.8%; Activity [25]: Active; Activity [26]: 57%; inhibition [27]: Dose-dependent effect; Activity [28]: 1.2%; Activity [29]: 63.6%; Activity [30]: Active; Activity [31]: Dose-dependent effect; Activity [32]: 15.4%; Activity [33]: 64.2%
5 | CC(C)=CC(=O)O[C@@H]1CC(C)(C)C[C@H]2C3=CC[C@@H]4[C@@]5(C)CC[C@H](O)C(C)(C)[C@@H]5CC[C@@]4(C)[C@]3(C)CC[C@@]12C(=O)O [Reduced Lantadene B] | 1.8 | 2.1 | > 50 | 5.2 | 6.4 | 0.5 | 3.4 | 12.6 | 7.4 | 42.1 | 19.9 | 32.8 | Active | 0.3 | Active | Active | Active | 40.8 | Dose-dependent effect | Dose-dependent effect | Activity [22]: 18.2%; Activity [23]: Active; Activity [24]: 14.8%; Activity [25]: Active; Activity [26]: 55.1%; inhibition [27]: Dose-dependent effect; Activity [29]: 61.6%; Activity [30]: Active; Activity [31]: Dose-dependent effect; Activity [32]: 13.9%; Activity [33]: 62.1%
